Results on two compounds are retold here after patent US6825231B2, “Substituted norbornylamino derivatives, processes for their preparation, their use as medicaments or diagnostics, and a medicament comprising them” (Aventis Pharma Deutschland GmbH, priority 1999, dated 2004).

In one data set the target is NHE3 (Oryctolagus cuniculus, UniProt P26432). To be noted: literature: Donowitz et al. Am. J. Physiol. 276: C136-C144; cited from earlier work.
For a further data set, the system named is male Wistar rats. In words: Diuresis (salidiuresis) experiment in rats. In kind it is in vivo, rat. To be noted: for Cl / K / Na: urine excretion; for Na/K / Osmolality: urine. How it is done:
The salidiuresis experiment was carried out using male Wistar rats having a weight of 155 to 175 g. 16 hours before the start of the experiment, the feed, but not the drinking water, was withdrawn from the animals. The rats were randomized and placed into diuresis cages. […] The control group received, orally, the corresponding volume of drinking water as vehicle. The excretion of urine of each group for the first 5 hours and in the period from 6 to 24 hours was measured. The urine electrolytes sodium and potassium were determined by flame photometry (flame photometer Eppendorf, Hamburg), and chloride was determined potentiometrically (chloride meter Eppendorf). The osmolality of the urine was determined using the freezing-point depression method (osmometer Vogel, Gieβen). Urine and electrolyte excretion and osmolality are stated in ml/kg, mmol/kg, and mosmol/kg of body weight, respectively. The ratio of Na^+/K^+ is an indication of the quality of effect of a diuretic. The results given in the table are arithmetic means with standard deviation.

Another data set has as its target T1, Rat NHE3 (Rattus norvegicus, UniProt P26433).
T1 construct: expressed in transfected cells
In words: NHE activity measurement: pHi recovery after acid load in transfected LAP1 cells. To be noted: pH recovery after acid load, 3 minutes. In kind it is cell-based. The text has this:
Most molecular biology techniques follow protocols from the works “Current Protocols in Molecular Biology (eds. Ausubel, F. M., Brent, R., Kingston, R. E., Moore, D. D., Seidman, J. G., Smith, J. A. and Struhl, K.; John Wiley & Sons)” or: “Molecular Cloning: A Laboratory Manual (Sambrock, J., Fritsch, E. F. and Maniatis, T.; Cold Spring Harbor Laboratory Press (1989))”. In our studies, stable transfected cell lines were produced which in each case express one of the following NHE subtypes: NHE1 of man (Sardet et al. Cell 56, 271-280 (1989)), NHE2 of the rabbit (Tse et al. J. Biol. Chem. 268, 11917-11924 (1993)), NHE3 from humans (Brant et al. Am. J. Physiol. 269 (Cell Physiol. 38), C198-C206 (1995)) or NHE3 of the rat (Orlowski et al.; J. Biol. Chem. 267, 9331-9339 (1992)).
After adding suitable linker sequences, the cDNA clones of the respective NHE subtypes obtained by Prof. Pouyssegur were cloned into the expression plasmid pMAMneo (obtainable, for example, via CLONTECH, Heidelberg) such that the Nhel restriction endonuclease recognition sequence of the plasmid is approximately 20-100 base pairs before the start codon of the respective NHE subtype and the entire coding sequence is present in the construct. In the human NHE3 obtained from human kidney mRNA via RT-PCR, the RT-PCR primer were selected such that the resulting cDNA band had terminal restriction sites which matched pMAMneo.
Using the so-called “calcium phosphate method” (described in Chapter 9.1 of “Current Protocols in Molecular Biology”), the NHE-deficient cell line LAP1 (Franchi et al.; Proc. Natl. Acad. Sci. USA 83, 9388-9392 (1986)) was transfected with the plasmids which contain the respective coding sequences of the NHE subtypes. After selection of transfected cells by means of growth in G418-containing medium (only cells which as a result of transfection contain a neogene can survive under these conditions), a selection was made for functional NHE expression. To do this, the “Acid Load” technique described by Sardet was used (Sardet et al.; Cell 56, 271-280 (1989)). Cells which express a functioning NHE subtype can also compensate in the absence of CO2 and HCO3- for the acidification carried out during this test, but untransfected LAP1 cells cannot. After repetition of the “Acid Load” selection several times, the surviving cells were inoculated into microtiter plates such that statistically there should have been one cell per well. Under the microscope, a check was made after approximately 10 days as to how many colonies were growing per well. Cell populations of individual colonies were then investigated with respect to their viability after “Acid Load” using the XTT proliferation kit (Boehringer Mannheim). The best cell lines were used for the further tests, and to avoid a loss of the transfected sequence were cultured under continuous selection pressure in G418-containing medium.
To determine IC50-values for the inhibition of the individual NHE subtypes by specific substances, a test developed by S. Faber (Faber et al.; Cell. Physiol. Biochem. 6, 39-49 (1996)), which is based on the “Acid Load” technique, was slightly modified.
In this test, the recovery of the intracellular pH (pHi) after an acidification was determined, which commences with functioning NHE even under bicarbonate-free conditions. To do this, the pHi was determined using the pH-sensitive fluorescent dye BCECF (Calbiochem, the precursor BCECF-AM is employed). The cells were first loaded with BCECF. The BCECF fluorescence was determined in a “Ratio Fluorescence Spectrometer” (Photon Technology International, South Brunswick, N.J., USA) at excitation wavelengths of 505 and 440 nm and an emission wavelength of 535 nm and converted into the pHi by means of calibration curves. […]

The next data set has as its system Caco 2 cells. In words: Caco 2 model (transport across monolayers, absorbed fraction). In kind it is in vitro ADME. To be noted: Caco 2 monolayers, apical to basolateral, assessed from Papp via calibration curve. How it is done: The Caco 2 cell line was obtained from the American Type Culture Collection (ATCC) and kept in Dulbecco's Modified Eagle Medium (high proportion of glucose), supplemented with non-essential amino acids, L-glutamine, penicillin/streptomycin, and 10% strength fetal calf serum, in an incubator under a 10% CO2 atmosphere at 95% relative atmospheric humidity and at 37° C. The cells were grown in cell culture flasks (175 cm^2). For the transport studies, the Caco 2 cells were inoculated onto polycarbonate cell culture inserts (COSTAR TRANSWELLS®, pore size: 3 μm, surface: 4.71 cm^2) at a cell density of 6.5×10^4 cells/cm^2 and incubated in six-well culture trays, changing the medium after four and eight days and then every other day. 21- to 25-day-old monolayers were used for the experiments.
In each test series, a 21-day-old monolayer was tested for its properties using ^3H-dextrane as permeability marker. The value of the transfer rate (cumulative) after 120 min had to be in the range of 2%.
The growth medium was removed from the apical and the basolateral side and the monolayers were then rinsed with the transport buffer (Hank's balanced salt solution pH 7.8; contains 2.8 g/l of glucose), and the cells were equilibrated at 37° C. under a 10% CO2 atmosphere for 15 min. The HBSS buffer is then removed.
The test compounds were dissolved in a mixture of HBSS buffer and DMSO and added to the apical buffer, giving a 1% strength (v/v) DMSO solution. The test concentration for the first experiment was 1 mM, that for the second experiment was 100 μM. The experiments were carried out at 37° C. and started by adding 1.5 ml of test solution on the donor side (apical). Transport buffer without compound was added to the recipient side (basolateral, 2.5 ml). […] Apical samples were taken at the start and at the end (120 min), so that the recovery rate of the compounds could be determined using these concentrations and the cumulative basolateral concentration. The compounds were analyzed by HPLC.
The apparent permeability coefficient (Papp) is calculated using the following equation: [formula]
in which dc/dt denotes the flow through the monolayer (μg of compound/(ml×s)), V denotes the liquid volume in the collection chamber (ml), A denotes the surface area of the monolayer (cm^2) and c0 denotes the initial concentration (μg of compound/ml) in the donor chamber. The flow through the monolayer was calculated from the cumulative basolateral concentration at the corresponding point of time using the initially linear data curve (linear up to 60 min). All determinations were carried out in three replications, so that the calculated Papp value is the mean of three measurements. […]

Where [1] appears, read: 50 mg/kg p.o., mean, 6-24 hours.
Setting [2] is: 50 mg/kg p.o., mean, sum 1-24 hours.

Broadly, the IC50 is the point on the concentration scale where inhibition reaches its midpoint. A lower IC50 goes with inhibition by little substance.

Sequence of NHE3 (P26432 30-832): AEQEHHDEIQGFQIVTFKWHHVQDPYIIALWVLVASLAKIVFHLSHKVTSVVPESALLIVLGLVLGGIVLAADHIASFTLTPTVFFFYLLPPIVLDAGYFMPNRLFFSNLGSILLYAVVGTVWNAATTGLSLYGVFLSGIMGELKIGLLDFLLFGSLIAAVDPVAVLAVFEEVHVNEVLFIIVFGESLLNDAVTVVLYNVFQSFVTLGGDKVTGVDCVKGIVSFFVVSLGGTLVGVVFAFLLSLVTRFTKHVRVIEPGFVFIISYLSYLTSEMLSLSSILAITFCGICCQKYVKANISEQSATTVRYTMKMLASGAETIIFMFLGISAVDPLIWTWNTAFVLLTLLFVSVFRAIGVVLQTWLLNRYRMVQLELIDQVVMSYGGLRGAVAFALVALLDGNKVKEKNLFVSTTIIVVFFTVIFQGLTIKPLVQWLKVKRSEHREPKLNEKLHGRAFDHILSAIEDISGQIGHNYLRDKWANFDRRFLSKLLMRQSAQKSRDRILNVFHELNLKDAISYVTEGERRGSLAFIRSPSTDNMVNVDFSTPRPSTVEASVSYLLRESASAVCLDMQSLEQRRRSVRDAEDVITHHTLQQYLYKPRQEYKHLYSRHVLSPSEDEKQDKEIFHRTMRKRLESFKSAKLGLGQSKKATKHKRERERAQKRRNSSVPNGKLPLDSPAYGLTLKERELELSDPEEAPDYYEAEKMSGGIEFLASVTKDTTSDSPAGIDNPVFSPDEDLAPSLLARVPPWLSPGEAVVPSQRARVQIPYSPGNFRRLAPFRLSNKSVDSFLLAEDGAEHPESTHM
T1 sequence (P26433 29-831): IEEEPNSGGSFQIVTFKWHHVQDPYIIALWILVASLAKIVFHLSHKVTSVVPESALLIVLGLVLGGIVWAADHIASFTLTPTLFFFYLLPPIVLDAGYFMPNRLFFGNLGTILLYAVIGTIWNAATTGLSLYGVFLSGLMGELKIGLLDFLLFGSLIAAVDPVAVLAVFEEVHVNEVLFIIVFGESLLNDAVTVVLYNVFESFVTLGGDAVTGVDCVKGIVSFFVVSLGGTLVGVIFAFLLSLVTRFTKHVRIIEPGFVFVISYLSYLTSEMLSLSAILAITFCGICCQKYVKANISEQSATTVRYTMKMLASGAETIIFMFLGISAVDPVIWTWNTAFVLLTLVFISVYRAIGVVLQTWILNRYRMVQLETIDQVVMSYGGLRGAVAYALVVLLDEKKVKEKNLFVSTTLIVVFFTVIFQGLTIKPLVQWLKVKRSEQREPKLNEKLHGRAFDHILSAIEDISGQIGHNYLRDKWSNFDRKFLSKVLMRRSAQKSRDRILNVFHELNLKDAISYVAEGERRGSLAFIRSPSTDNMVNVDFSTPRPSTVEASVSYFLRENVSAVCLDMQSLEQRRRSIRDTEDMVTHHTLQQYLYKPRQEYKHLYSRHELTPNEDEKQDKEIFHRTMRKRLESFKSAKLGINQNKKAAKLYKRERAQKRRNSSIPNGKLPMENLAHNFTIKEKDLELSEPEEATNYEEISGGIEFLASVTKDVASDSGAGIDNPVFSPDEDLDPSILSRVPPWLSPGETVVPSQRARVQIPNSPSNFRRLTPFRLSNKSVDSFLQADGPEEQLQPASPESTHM

For `CC(C)[C@@H](CC[C@@H](C)[C@H]1CC[C@H]2[C@@H]3[C@H](O)C[C@H]4C[C@@H](NCCCNCCCCN)CC[C@]4(C)[C@H]3CC[C@]12C)OS(=O)(=O)O` [squalamine], at NHE3, the “delay of NHE3 inhibitory activity” value is listed as “activity seen after one hour”.

`COc1cccc(CN[C@@H]2C[C@@H]3C[C@H]2[C@@H]2CCC[C@H]32)c1.Cl` (racemic) [Example 5, rac-(exo/endo)-(3-methoxybenzyl)(octahydro-4,7-methanoinden-5-yl)amine hydrochloride] yielded a Urine in the data set on male Wistar rats (50 mg in 10 ml of drinking water/kg of BW p.o., n = 5, mean, 1-5 hours) of 12.39 mL/kg. Besides, in the data set with male Wistar rats (50 mg/kg orally, compared to the control), the “salidiuretic effect (assessment)” value is listed as “no salidiuretic effect”. Further, in the data set with male Wistar rats (setting [1]), the Urine amounted to 22.57 mL/kg, the Cl stood at 1.57 mmol/kg, the K worked out at 3.57 mmol/kg and the Na came out at 1.29 mmol/kg. In the data set with male Wistar rats (setting [1]), this compound showed a Na/K of 0.37 and an Osmolality of 30.51 mosmol/kg. In the data set with male Wistar rats (setting [2]), this compound came in with a Urine of 34.96 mL/kg, a Cl of 2.17 mmol/kg, a K of 4.31 mmol/kg and a Na of 1.60 mmol/kg. For the same compound, in the data set with male Wistar rats (setting [2]), the Na/K came out at 0.38 and the Osmolality was determined as 38.33 mosmol/kg. In the data set with male Wistar rats (50 mg/kg p.o., mean, 1-5 hours), this compound gave a Cl of 0.60 mmol/kg, a K of 0.75 mmol/kg, a Na of 0.31 mmol/kg and a Na/K of 0.47. The Osmolality in the data set on male Wistar rats (50 mg/kg p.o., mean, 1-5 hours) stood at 7.82 mosmol/kg. For the same compound, it took 810 nM to reach half-maximal inhibition against Rat NHE3 (IC50). The Absorbed fraction in the data set with Caco 2 cells amounted to 100%.
